Results taken from patent US7511061B2, “Triazoles as farnesyl transferase inhibitors” (Janssen Pharmaceutica N.V., priority 1999, dated 2009).

Columns and labels:
[1] = tested on: Respiratory Syncytial Virus; assay: In vitro screening for activity against Respiratory Syncytial Virus (MTT assay, protection against cytopathology); format: cell-based; conditions: for SI (selectivity index, CC50 divided by IC50): RSV, HeLa cells; for IC50: human respiratory syncytial virus, 168 h, RSV-infected HeLa cells, seven days after infection, MTT, read-out: IC50 (antiviral activity)
Source text: (§1) The percent protection against cytopathology caused by viruses (antiviral activity or IC50) achieved by tested compounds and their cytotoxicity (CC50) were both calculated from dose-response curves. The selectivity of the antiviral effect is represented by the selectivity index (SI), calculated by dividing the CC50 (cytotoxic dose for 50% of the cells) by the IC50 (antiviral activity for 50% of the cells).
(§2) Automated tetrazolium-based […] assays were used for determination of IC50 and CC50 of test compounds. Flat-bottom, 96-well plastic microtiter trays were filled with 180 μl of Eagle's Basal Medium, supplemented with 5% FCS (0% for FLU) and 20 mM Hepes buffer. Subsequently, stock solutions (7.8× final test concentration) of compounds were added in 45 μl volumes to a series of triplicate wells so as to allow simultaneous evaluation of their effects on virus- and mock-infected cells. Five five-fold dilutions were made directly in the microtiter trays using a robot system. Untreated virus controls, and HeLa cell controls were included in each test. Approximately 100 TCID50 of Respiratory Syncytial Virus was added to two of the three rows in a volume of 50 μl. The same volume of medium was added to the third row to measure the cytotoxicity of the compounds at the same concentrations as those used to measure the antiviral activity. After two hours of incubation, a suspension (4×10^5 cells/ml) of HeLa cells was added to all wells in a volume of 50 μl. The cultures were incubated at 37° C. in a 5% CO2 atmosphere. Seven days after infection the cytotoxicity and the antiviral activity was examined spectrophotometrically. To each well of the microtiter tray, 25 μl of a solution of MTT (3-(4,5-dimethylthiazol-2-yl)-2,5-diphenyltetrazolium bromide) was added. The trays were further incubated at 37° C. for 2 hours, after which the medium was removed from each cup. Solubilization of the formazan crystals was achieved by adding 100 μl 2-propanol. Complete dissolution of the formazan crystals were obtained after the trays have been placed on a plate shaker for 10 min. Finally, the absorbances were read in an eight-channel computer-controlled photometer (Multiskan MCC, Flow Laboratories) at two wavelengths (540 and 690 nm). The absorbance measured at 690 nm was automatically subtracted from the absorbance at 540 nm, so as to eliminate the effects of non-specific absorption.

HeLa cells = format: cell-based; conditions: human, 7 days
Source text: as §1, §2

| Structure (SMILES) | SI (selectivity index, CC50 divided by IC50) [1] | IC50 [1] [nM] | CC50 (cytotoxic dose for 50% of the cells) (HeLa cells) [nM] |
| --- | --- | --- | --- |
| Cc1ccc(CCN(Cc2ccc3ccccc3n2)Cc2nncn2Cc2ccc(C#N)cc2)cc1 [compound 46] | 758 | 88.1 | 7060 |
| COC(=O)c1ccc(Cn2cnnc2CN(CCc2ccc(Br)cc2)Cc2ccc3ccccc3n2)cc1 [compound 90] | 1988 | 25.9 | 7590 |
| Brc1ccc(CCN(Cc2ccc3ccccc3n2)Cc2nncn2Cc2ccc(Br)cc2)cc1 [compound 92] | 147 | 150 | 6820 |
| Fc1ccc(Cn2cnnc2CN(CCc2ccc(Br)cc2)Cc2ccc3ccccc3n2)cc1 [compound 97] | 322 | 80 | 7100 |
| Brc1ccc(CCN(Cc2ccc3ccccc3n2)Cc2nncn2Cc2ccccc2)cc1 [compound 101] | 196 | 128 | 6890 |
| N#Cc1cccc(Cn2cnnc2CN(CCc2ccc(Br)cc2)Cc2ccc3ccccc3n2)c1 [compound 102] | 793 | 82.4 | 7080 |
| N#Cc1ccc(Cn2cnnc2CN(CCc2ccc(Cl)cc2Cl)Cc2ccc3ccccc3n2)cc1 [compound 114] | 337 | 118 | 6930 |
| N#Cc1ccc(Cn2cnnc2CN(CCc2ccc(Br)cc2)Cc2ccc3cccc(O)c3n2)cc1 [compound 155] | 99 | 160 | 6800 |
| Clc1ccc(Cn2cnnc2CN(CCc2ccc(Br)cc2)Cc2ccc3ccccc3n2)cc1 [compound 157] | 272 | 93.1 | 7030 |
